{"source": "the SangsterLogP compilation", "data": [{"assay": "method code SF-AS, from DOI: 10.1016/s0008-6215(00)84247-0, PMID: 18283", "details": "pH 7.5", "values": [{"compound": "OC[C@H]1O[C@@H](Sc2ccccc2)[C@H](O)[C@@H](O)[C@H]1O", "logD": -0.56}, {"compound": "OCC1OC(SCCCc2ccccc2)C(O)C(O)C1O", "note": "(stereo unspecified)", "logD": 0.38}, {"compound": "OC[C@H]1O[C@@H](SCCc2ccccc2)[C@H](O)[C@@H](O)C1O", "note": "(stereo in doubt)", "logD": -0.1}, {"compound": "OC[C@H]1O[C@@H](SCc2ccccc2)[C@H](O)[C@@H](O)[C@H]1O", "logD": -0.47}]}, {"assay": "method code SF-CR, from DOI: 10.1016/s0008-6215(00)84247-0, PMID: 18283", "details": "pH 7.5", "values": [{"compound": "CCOC1O[C@H](CO)[C@H](O)[C@H](O)[C@H]1O", "note": "(stereo in doubt)", "logD": -2.28}, {"compound": "CCCCCOC1C(O)C(S)OC(CO)C1O", "note": "(stereo unspecified)", "logD": -0.18}, {"compound": "CCCS[C@@H]1O[C@H](CO)[C@H](O)[C@H](O)[C@H]1O", "logD": -1.18}, {"compound": "CC(C)S[C@@H]1O[C@H](CO)[C@H](O)[C@H](O)[C@H]1O", "logD": -1.26}, {"compound": "CCCCCCCCS[C@@H]1O[C@H](CO)[C@H](O)[C@H](O)[C@H]1O", "logD": 2.13}, {"compound": "CCCCS[C@@H]1O[C@H](CO)[C@H](O)[C@H](O)[C@H]1O", "logD": -0.54}, {"compound": "CCCCCOC1C(O)C(O)OC(CO)C1O", "note": "(stereo unspecified)", "logD": -0.8}, {"compound": "CCCCCCO[C@@H]1O[C@H](CO)[C@H](O)[C@H](O)[C@H]1O", "logD": 0.16}, {"compound": "CCCCO[C@@H]1O[C@H](CO)[C@H](O)[C@H](O)[C@H]1O", "logD": -1.04}, {"compound": "CCCCCCCCO[C@@H]1O[C@H](CO)[C@H](O)[C@H](O)[C@H]1O", "logD": 1.46}, {"compound": "CCCCCCCS[C@@H]1O[C@H](CO)[C@H](O)[C@H](O)[C@H]1O", "logD": 1.5}, {"compound": "CCCO[C@@H]1O[C@H](CO)[C@H](O)[C@H](O)[C@H]1O", "logD": -1.66}, {"compound": "CCCCCO[C@@H]1O[C@H](CO)[C@H](O)[C@H](O)[C@H]1O", "logD": -0.42}, {"compound": "CCS[C@@H]1O[C@H](CO)[C@H](O)[C@H](O)[C@H]1O", "logD": -1.51}, {"compound": "CCCCCS[C@@H]1O[C@H](CO)[C@H](O)[C@H](O)[C@H]1O", "logD": 0.39}, {"compound": "CCCCCCCO[C@@H]1O[C@H](CO)[C@H](O)[C@H](O)[C@H]1O", "logD": 0.73}, {"compound": "CCCCCCS[C@@H]1O[C@H](CO)[C@H](O)[C@H](O)[C@H]1O", "logD": 0.86}]}]}
